Data on 15 molecules can be found in patent US5185360A, “Dihydroindenoindole compounds and methods for using the same” (University of Bath, priority 1989, dated 1993).

Assay [1] relates to lipid peroxidation of soy bean phospholipids. As to the kind of experiment: Ascorbate/Fe^2+-dependent lipid peroxidation. The format is biochemical. To be noted: inhibition of ascorbate/Fe^2+-dependent lipid peroxidation by 50%; pH 7.4, room temperature, 30 min. The text has this:
(§1) The most important feature of the compounds of the invention is their efficacy as free-radical scavengers or antioxidants. An assay system measuring the concentration of the compounds of formulas (IA) and (IB) required to inhibit lipid peroxidation by 50% (IC50) was used. Other assays described below are the red blood cell fragility test used for measuring membrane stabilisation by indenoindoles. (Table 2), and protection by indenoindoles against cytotoxicity of N-methyl-N'-nitro-N-nitrosoguanidine (MNNG) in rat hepatocytes (Table 3). MNNG is a highly cytotoxic agent, the mechanism of action of which may involve a radical-mediated membrane destabilization.
For the ferrous/ascorbate lipid peroxidation system, 6.25 ml of 0.1 M potassium phosphate buffer (KPi), pH 7.4, was added to 12.5 mg dried soy bean phospholipids. After flushing with argon for 2 min, the suspension was sealed with five layers of Parafilm and sonicated until the suspension was translucent. The final reaction mixture was composed of 200 μg/ml phospholipid, 10 μM FeNH4 (SO4)2 or Fe(NH4)2 (SO4)2, and 100 μM ascorbic acid in 0.1 M KPi (pH 7.4), and the antioxidant to be tested in acetone or DMSO. The volume of vehicle never exceeded 1% of the total volume. The reaction was initiated by the addition of ascorbic acid plus iron. The reaction was continued at room temperature in a shaking water bath for 30 min and then stopped by the addition of […] of 0.5 M butylated hydroxytoluene in DMSO. The above procedure and the subsequent determination of 2-thibarbituric acid-reactive material is described in: Shertzer, H. G. et al, Biochem. Pharmacol. 37, 333 (1988).

In the next assay the test system is red blood cells. Nature of the assay: Membrane stabilization in red blood cells (red blood cell fragility test). The format is cell-based, rat. To be noted: linear regression slope: percentage protection against osmolysis per μM protecting agent; pH 7.4.
Description: as §1
The membrane stabilization effect of indenoindoles was assayed by the red blood cell fragility test. Rats were anesthetized with 65 mg phenobarbital per kg body weight by i.p. injection. Blood samples were removed into a heparinized syringe from the left ventricle and diluted 20-fold with buffer containing 140 mM NaCl, 10 mM sodium citrate and 5 mM glucose (pH 7.4) at 0° C. Diluted blood was kept on ice. A 0.75 ml aliquot of blood was added to a 4 ml cuvette containing 10 μl of the antioxidant dissolved in DMSO vehicle. After I min of gentle swirling, 0.75 ml of 0.9 NaCl or H2 O were added to the cuvette by forceful pipetting, and the absorbance at 656 nm was recorded with a Beckman DU-70 spectrophotometer. When H2 O was added in the absence of a stabilizing agent, absorbance decreased within 15 sec to 0.8. Addition of NaCl instead of H2 O gave a time-independent absorbance of 2.2. In the presence of increasing concentrations of stabilizing chemicals, the absorbance decrease observed after the addition of water was diminished. The % protection from osmolysis was obtained from the equation [[(2.2-0.8)- A]/(2.2-0.8)]×100%, where A=2.2 minus the absorbance decrease when water is added in the presence of a known concentration of chemical. The % protection is then plotted against several concentrations of the chemical being treated. The red blood cell fragility protective index value (RBC-PIV) is the linear regression slope of this plot, expressed as the percentage protection against osmolysis per μM protecting agent.

For a further assay, the system named is rat hepatocytes. As to the kind of experiment: Protection against cytotoxic effects of MNNG in hepatocytes. To be noted: Hepatocyte, concentration of compound required to extend by 1 hour the time needed for MNNG to kill 50% of the viable cells, 0.5 mM MNNG. The format is cell-based, rat (male Sprague-Dawley).
Description: as §1
The protective effects of indenoindoles on MNNG-induced cytotoxicity was assayed with rat hepatocytes. Hepatocytes were prepared from male Sprague-Dawley rats by collagenase treatment as originally described by Zahlten and Stratman (Zahlten, R. N. and Stratman, F. W., Arch. Biochem. Biophys. 163, 600 (1988)), as modified by Reitman et al. (Reitman, F. A. Shertzer, H. G. and Berger, M. L., Biochem. Pharmacol. 37, 3183 (1988)). In order to improve viability, cells were centrifuged through 0.508g/ml Percoll (Pharmacia AB, Uppsala, Sweden) in 137 mM NaCl, 8.1 mM Na2 HPO4 and 1.5 mM KH2 PO4 (pH 7.4). Putative protecting agents were added to the cells as solutions in DMSO, with the final concentration of DMSO never exceeding 5 μl/ml of cell suspension. MNNG was added to a concentration of 0.5 mM as a solution in ethanol, giving a final concentration of ethanol of 1%; ethanol alone was by itself without effect. Viability was determined as the percentage of cells that excluded 0.2% trypan blue. Values are the concentration of compound required to extend by 1 hour, the time needed for MNNG to kill 50% of the viable cells.

The subject of the next assay is mouse liver microsomes. To be noted: NADPH-fortified mouse liver microsomes, initiated with CCl4; FASEB J. 2, A 407 (1988); cited from earlier work. In general terms: Microsomes from liver hold many membrane-bound enzymes, among them those of drug oxidation.
A further assay deals with lipid peroxidation. The settings on record: Fd Chem. Toxicol. 26, 517 (1988); cited from earlier work.

For the molecule `Cn1c2c(c3ccccc31)Cc1ccccc1-2` [5-Methyl-DHII, 5,10-Dihydro-5-methylindeno[1,2-b]indole], in assay [1], the negative-log IC50 (pIC50) (commonly the IC50 on a negative log10 scale, so that one unit is a factor of ten) came out at 5.1. The “RBC-PIV (red blood cell fragility protective index value)” value in the assay on red blood cells was determined as 0.74 %/μM. In addition, in the assay with rat hepatocytes, the IC50 (as a rule, the point on the concentration scale where inhibition reaches its midpoint) was determined as 6 µM.
With `Fc1ccc2[nH]c3c(c2c1)Cc1ccccc1-3` [8-Fluoro-DHII, 5,10-Dihydro-8-fluoroindeno[1,2-b]indole], the pIC50 in assay [1] is on record as 5.6.
Regarding `CC(C)c1ccc2[nH]c3c(c2c1)Cc1ccccc1-3` [8-Isopropyl-DHII, 5,10-Dihydro-8-iso-propylindeno[1,2-b]indole], the pIC50 in assay [1] turned out to be 5.6.
The molecule `COc1ccc2[nH]c3c(c2c1)Cc1ccccc1-3` [8-Methoxy-DHII, 5,10-Dihydro-8-methoxyindeno[1,2-b]indole] gave a pIC50 in assay [1] of 6.2.
With `c1ccc2c(c1)Cc1[nH]c3ccccc3c1-2` [iso-DHII, 5,6-Dihydroindeno[2,1-b]indole], the negative logarithm of the IC50 (pIC50) in assay [1] was determined as 5.8. Besides, the “inhibition of lipid peroxidation” value in the assay with mouse liver microsomes was “inhibiting lipid peroxidation”. Besides, the “RBC-PIV (red blood cell fragility protective index value)” value in the assay on red blood cells is reported as 0.50 %/μM. Also, half-maximal inhibition with rat hepatocytes (IC50) required 3.4 µM.
In assay [1], `Cc1c(C)c2c(c(C)c1O)CCC(C)(CCCC(C)CCCC(C)CCCC(C)C)O2` (stereo not drawn) [α-Tocopherol (Vitamin E), α-Tocopherol, reference compound] yielded a pIC50 of 5.0. For the same molecule, in the assay with red blood cells, the “RBC-PIV (red blood cell fragility protective index value)” value was 0.10 %/μM.
The molecule `c1ccc2c(c1)Cc1c-2[nH]c2ccccc12` [DHII, 5,10-Dihydroindeno[1,2-b]indole] gave a negative logarithm of the IC50 (pIC50) in assay [1] of 5.8. In addition, the “inhibition of lipid peroxidation” value was “inhibiting lipid peroxidation” with mouse liver microsomes and “potent inhibitor of lipid peroxidation” with lipid peroxidation. Besides, the “RBC-PIV (red blood cell fragility protective index value)” value with red blood cells came out at 0.49 %/μM. Also, the IC50 with rat hepatocytes stood at 3.1 µM.
Take `Clc1cccc2c3c([nH]c12)-c1ccccc1C3` [6-Chloro-DHII, 5,10-Dihydro-6-chloroindeno[1,2-b]indole]: the negative-log IC50 (pIC50) in assay [1] was found to be 5.2.
On the same count and under the same terms, under `CC1c2ccccc2-c2[nH]c3ccccc3c21` (centres unmarked) [10-Methyl-DHII, 5,10-Dihydro-10-methylindeno[1,2-b]indole] stands 5.7; under `CCN(CC)c1ccc2c(c1)Cc1c-2[nH]c2ccccc12` [2-Diethylamino-DHII, 5,10-Dihydro-2-(N,N-diethylamino)indeno[1,2-b]indole], 7.4.
For the molecule `Cc1cc(C)c2[nH]c3c(c2c1)Cc1ccccc1-3` [6,8-Dimethyl-DHII, 5,10-Dihydro-6,8-dimethylindeno[1,2-b]indole], the pIC50 in assay [1] was determined as 6.1.
As to `Cc1ccc2[nH]c3c(c2c1)Cc1ccccc1-3` [8-Methyl-DHII, 5,10-Dihydro-8-methylindeno[1,2-b]indole], in assay [1], the negative logarithm of the IC50 (pIC50) is 5.7.
As for `CCNc1ccc2c(c1)Cc1c-2[nH]c2ccccc12` [2-Ethylamino-DHII, 5,10-Dihydro-2-(N-ethylamino)indeno[1,2-b] indole], the negative logarithm of the IC50 (pIC50) in assay [1] is given as 7.9.
`CC1(C)c2ccccc2-c2[nH]c3ccccc3c21` [10,10-Dimethyl-DHII, 5,10-Dihydro-10,10-dimethylindeno[1,2-b]indole] yielded a pIC50 in assay [1] of 6.1. The “RBC-PIV (red blood cell fragility protective index value)” value in the assay on red blood cells amounted to 0.48 %/μM.
`COc1ccc2[nH]c3c(c2c1)-c1ccccc1C3` [9-Methoxy-iso-DHII, 5,6-Dihydro-9-methoxyindeno[2,1-b]indole]: the pIC50 in assay [1] came to 6.4.
